Source: PubChem BioAssay AID248 (DTP/NCI, 2004)
“And” between values parts separate entries of the source, which are not always exact repeats. Equal values may be shown once. Toxic doses and inconclusive results are not listed. Cut-off read from the data, not from the text of the source: active = T/C of 150% or more; inactive = T/C below 125%.

System: L1210 leukemia ip in BDF1 mice, survival T/C
Assay: NCI In Vivo Anticancer Drug Screen. Data for tumor model L1210 Leukemia (intraperitoneal) in B6D2F1 (BDF1) mice
Conditions: endpoint: mean survival time, higher = longer survival
Method in brief: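 Tumor was transplanted into mice, which were then dosed with test compound or vehicle alone. Survival was recorded for each group, and the treated figure was expressed relative to the control figure.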

[1] = dose: 100.0 mg/kg/injection, schedule: Q01DX009 (ip), vehicle: Klucel (hydroxypropylcellulose) (HPC)
[2] = dose: 200.0 mg/kg/injection, schedule: Q01DX009 (ip), vehicle: Klucel (hydroxypropylcellulose) (HPC)
[3] = dose: 100.0 mg/kg/injection, schedule: Q04DX003 (ip), vehicle: saline
[4] = dose: 200.0 mg/kg/injection, schedule: Q04DX003 (ip), vehicle: saline
[5] = dose: 400.0 mg/kg/injection, schedule: Q04DX003 (ip), vehicle: saline
[6] = dose: 12.5 mg/kg/injection, schedule: Q04DX003 (ip), vehicle: saline
[7] = dose: 100.0 mg/kg/injection, schedule: Q04DX003 (ip), vehicle: Klucel (hydroxypropylcellulose) (HPC)
[8] = dose: 200.0 mg/kg/injection, schedule: Q04DX003 (ip), vehicle: Klucel (hydroxypropylcellulose) (HPC)
[9] = dose: 400.0 mg/kg/injection, schedule: Q04DX003 (ip), vehicle: Klucel (hydroxypropylcellulose) (HPC)
[10] = dose: 100.0 mg/kg/injection, schedule: Q04DX002 (ip), vehicle: Klucel (hydroxypropylcellulose) (HPC)
[11] = dose: 200.0 mg/kg/injection, schedule: Q04DX002 (ip), vehicle: Klucel (hydroxypropylcellulose) (HPC)
[12] = dose: 25.0 mg/kg/injection, schedule: Q01DX009 (ip), vehicle: saline
[13] = dose: 50.0 mg/kg/injection, schedule: Q01DX009 (ip), vehicle: saline
[14] = dose: 50.0 mg/kg/injection, schedule: Q04DX003 (ip), vehicle: saline
[15] = dose: 100.0 mg/kg/injection, schedule: Q01DX009 (ip), vehicle: saline

Measured: T/C

CCCCCCCC(CCCCCC)(OO)C(=O)OC (stereo not given)
inactive: dose: 25.0 mg/kg/injection, schedule: Q04DX002 (ip), vehicle: saline with Tween-80 100 % of control | dose: 50.0 mg/kg/injection, schedule: Q04DX002 (ip), vehicle: saline with Tween-80 95 % of control | dose: 100.0 mg/kg/injection, schedule: Q04DX002 (ip), vehicle: saline with Tween-80 91 % of control

O=[N+]([O-])/C=C\c1cc2c3c(c1)CCCN3CCC2
inactive: dose: 3.13 mg/kg/injection, schedule: Q01DX001 (ip), vehicle: saline with Tween-80 95 % of control | dose: 3.13 mg/kg/injection, schedule: Q04DX003 (ip), vehicle: saline with Tween-80 98 % of control | dose: 6.25 mg/kg/injection, schedule: Q01DX001 (ip), vehicle: saline with Tween-80 94 % of control | dose: 6.25 mg/kg/injection, schedule: Q04DX003 (ip), vehicle: saline with Tween-80 93 % of control | dose: 12.5 mg/kg/injection, schedule: Q01DX001 (ip), vehicle: saline with Tween-80 95 % of control and 93 % of control | dose: 12.5 mg/kg/injection, schedule: Q01DX009 (ip), vehicle: saline with Tween-80 100 % of control | dose: 12.5 mg/kg/injection, schedule: Q04DX003 (ip), vehicle: saline with Tween-80 97 % of control | dose: 25.0 mg/kg/injection, schedule: Q01DX001 (ip), vehicle: saline with Tween-80 93 % of control | dose: 25.0 mg/kg/injection, schedule: Q01DX009 (ip), vehicle: saline with Tween-80 102 % of control | dose: 50.0 mg/kg/injection, schedule: Q01DX001 (ip), vehicle: saline with Tween-80 97 % of control | dose: 50.0 mg/kg/injection, schedule: Q01DX009 (ip), vehicle: saline with Tween-80 97 % of control

CCCC(C)OP(=O)(OCC)OC(C)CC (stereo not given)
inactive: [1] 100 % of control | [2] 89 % of control

ClC/C=C/C[P+](c1ccccc1)(c1ccccc1)c1ccccc1
inactive: dose: 1.56 mg/kg/injection, schedule: Q01DX009 (ip), vehicle: saline 89 % of control | dose: 3.12 mg/kg/injection, schedule: Q01DX009 (ip), vehicle: saline 99 % of control | dose: 6.25 mg/kg/injection, schedule: Q01DX009 (ip), vehicle: saline 95 % of control

O=[N+]([O-])c1cc(S(=O)(=O)N2CCCC2)ccc1N1CCCC1
inactive: [3] 100 % of control | [4] 96 % of control | [5] 105 % of control

O=C(Nc1cccc([N+](=O)[O-])c1)Nc1ccccc1Cl
inactive: dose: 100.0 mg/kg/injection, schedule: Q04DX002 (ip), vehicle: saline + alcohol 88 % of control | dose: 200.0 mg/kg/injection, schedule: Q04DX002 (ip), vehicle: saline + alcohol 88 % of control | dose: 400.0 mg/kg/injection, schedule: Q04DX002 (ip), vehicle: saline + alcohol 88 % of control

CCCC[N+](C)(CCCC)CC(O)c1cc(-c2ccc(Cl)cc2)nc2c(Cl)cc(Cl)cc12 (stereo not given)
inactive: [6] 102 % of control

CC(Cc1ccccc1)NN (stereo not given)
inactive: dose: 3.9 mg/kg/injection, schedule: Q01DX009 (ip), vehicle: saline 93 % of control | dose: 7.81 mg/kg/injection, schedule: Q01DX009 (ip), vehicle: saline 96 % of control | dose: 15.62 mg/kg/injection, schedule: Q01DX009 (ip), vehicle: saline 93 % of control | dose: 15.62 mg/kg/injection, schedule: Q04DX003 (ip), vehicle: saline 107 % of control | dose: 31.25 mg/kg/injection, schedule: Q04DX003 (ip), vehicle: saline 98 % of control | dose: 62.5 mg/kg/injection, schedule: Q04DX003 (ip), vehicle: saline 104 % of control

CC1CCC(C(C)C)C(OC(=O)c2c([N+](=O)[O-])ccc([N+](=O)[O-])c2Br)C1 (stereo not given)
inactive: [1] 105 % of control | [2] 100 % of control

O=C(CC(=O)c1ccc(Cl)cc1)NC(=O)c1ccccc1
inactive: dose: 100.0 mg/kg/injection, schedule: Q01DX001 (ip), vehicle: other 96 % of control | dose: 200.0 mg/kg/injection, schedule: Q01DX001 (ip), vehicle: other 91 % of control | dose: 400.0 mg/kg/injection, schedule: Q01DX001 (ip), vehicle: other 89 % of control

CC1SCSCS1
inactive: [7] 111 % of control | [8] 88 % of control | [9] 98 % of control

CCCCC1(C(C)C)C(=O)NC(=O)NC1=O
inactive: dose: 75.0 mg/kg/injection, schedule: Q01DX001 (ip), vehicle: saline 102 % of control | dose: 150.0 mg/kg/injection, schedule: Q01DX001 (ip), vehicle: saline 96 % of control

COc1ccc(C2C3CCC(C3)C2C(C)=O)cc1 (stereo not given)
inactive: dose: 100.0 mg/kg/injection, schedule: Q01DX001 (ip), vehicle: saline with Tween-80 101 % of control | dose: 200.0 mg/kg/injection, schedule: Q01DX001 (ip), vehicle: saline with Tween-80 90 % of control | dose: 400.0 mg/kg/injection, schedule: Q01DX001 (ip), vehicle: saline with Tween-80 92 % of control

COC1OC(CBr)C(OC(=O)c2ccccc2)C(OC(=O)c2ccccc2)C1OS(=O)(=O)c1ccc(C)cc1 (stereo not given)
inactive: dose: 50.0 mg/kg/injection, schedule: Q04DX002 (ip), vehicle: Klucel (hydroxypropylcellulose) (HPC) 97 % of control | [10] 87 % of control | [11] 97 % of control

Oc1ccccc1N=Cc1ccc(C=Nc2ccccc2O)cc1
inactive: dose: 100.0 mg/kg/injection, schedule: Q01DX009 (ip), vehicle: gum acacia 101 % of control | dose: 100.0 mg/kg/injection, schedule: Q04DX003 (ip), vehicle: gum acacia 100 % of control | dose: 200.0 mg/kg/injection, schedule: Q01DX009 (ip), vehicle: gum acacia 97 % of control | dose: 200.0 mg/kg/injection, schedule: Q04DX003 (ip), vehicle: gum acacia 98 % of control | dose: 400.0 mg/kg/injection, schedule: Q01DX009 (ip), vehicle: gum acacia 107 % of control | dose: 400.0 mg/kg/injection, schedule: Q04DX003 (ip), vehicle: gum acacia 94 % of control

C=C[C+](CCCC)C(=O)[O-]
inactive: [12] 95 % of control | [13] 92 % of control | [14] 98 % of control | dose: 100.0 mg/kg/injection, schedule: Q01DX001 (ip), vehicle: acetone 96 % of control | [15] 87 % of control | [3] 93 % of control | dose: 150.0 mg/kg/injection, schedule: Q01DX009 (ip), vehicle: saline 101 % of control | dose: 200.0 mg/kg/injection, schedule: Q01DX001 (ip), vehicle: acetone 95 % of control | dose: 225.0 mg/kg/injection, schedule: Q01DX009 (ip), vehicle: saline 98 % of control

COC(=O)C1C(=O)C(C(=O)OC)C2C(C(=O)OC)C(=O)C(C(=O)OC)C12 (stereo not given)
inactive: dose: 100.0 mg/kg/injection, schedule: Q01DX001 (ip), vehicle: Klucel (hydroxypropylcellulose) (HPC) 104 % of control | [1] 93 % of control | [7] 97 % of control | dose: 200.0 mg/kg/injection, schedule: Q01DX001 (ip), vehicle: Klucel (hydroxypropylcellulose) (HPC) 101 % of control | [2] 95 % of control | [8] 96 % of control | dose: 400.0 mg/kg/injection, schedule: Q01DX001 (ip), vehicle: Klucel (hydroxypropylcellulose) (HPC) 103 % of control | dose: 400.0 mg/kg/injection, schedule: Q01DX009 (ip), vehicle: Klucel (hydroxypropylcellulose) (HPC) 98 % of control | [9] 102 % of control

Cc1no[n+]([O-])c1C(=O)NN
inactive: [10] 106 % of control | [11] 91 % of control | dose: 400.0 mg/kg/injection, schedule: Q04DX002 (ip), vehicle: Klucel (hydroxypropylcellulose) (HPC) 95 % of control

CCOC(=O)c1nc2nc(Cl)c(Cl)nc2[nH]1
inactive: [6] 102 % of control | [12] 107 % of control | dose: 25.0 mg/kg/injection, schedule: Q04DX003 (ip), vehicle: saline 100 % of control | [13] 105 % of control | [14] 105 % of control | [15] 96 % of control | [3] 99 % of control | [4] 98 % of control | [5] 96 % of control

O=C(O)CNCc1cccc(Br)c1
inactive: [15] 103 % of control | [3] 95 % of control | dose: 200.0 mg/kg/injection, schedule: Q01DX009 (ip), vehicle: saline 92 % of control | [4] 113 % of control | dose: 400.0 mg/kg/injection, schedule: Q01DX009 (ip), vehicle: saline 98 % of control | [5] 98 % of control
